The results in this text go back to ChEMBL document CHEMBL1201862, “PubChem BioAssay data set” (2004).

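All cell lines were grown in 96-well plates and treated with compound for 48 hours. The concentration for 50% growth inhibition is given as GI50.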 Active and inactive are the calls of the source. No stated cut-off is given here; in the data, active = GI50 up to about 1.1 µM and inactive = higher.

Common to all, as to experiment: NCI-60 cell line screen, 48 h
For test [1], the system named is HL-60.
For test [2], the system named is M19-MEL.
Test [3] concerns HCT-116.
In test [4] the test system is SNB-19.
The subject of test [5] is NCI-H23.
Test [6] relates to MOLT-4.
For test [7], the system named is U-251.
Test [8] has as its system NCI-H226.
In test [9] the test system is LOX IMVI.
The subject of test [10] is CCRF-CEM.
The subject of test [11] is HOP-92.
Test [12] has as its system HCC 2998.
Test [13] relates to SK-MEL-2.
For test [14], the system named is SK-OV-3.
The test system of test [15] is SNB-75.
Test [16] has as its system SF-539.
The test system of test [17] is ACHN.
For test [18], the system named is SN12C.
Test [19] has as its system MDA-N.
Test [20] concerns MDA-MB-435.

Regarding `Nc1ccccc1[S+]([O-])c1ccccc1` (centres undefined), the GI50 in test [1], in [2], in test [3], in test [4], in test [5] and in test [6] was > 100 µM (inactive) in each case. For the same compound, the GI50 is > 100 µM (inactive) in [7]; > 100 µM (inactive) in test [8]; > 100 µM (inactive) in [9]; > 100 µM (inactive) in test [10]; 39.2 µM (inactive) in test [11]; > 100 µM (inactive) in test [12]. Moreover, the GI50 in test [13], in [14], in test [15], in test [16], in test [17] and in test [18] was > 100 µM (inactive) in each case.

`O=C1C=CN(C2OC(CO)C(O)C2O)C(=O)C1` (centres undefined): the GI50 is 9.46 µM (inactive) in test [1]; 35.6 µM (inactive) in test [2]; 1.51 µM (inactive) in test [3]; 8.34 µM (inactive) in [6]; 62.5 µM (inactive) in test [19]; 423 µM (inactive) in [8]. The GI50 is 12 µM (inactive) in [9]; 6.87 µM (inactive) in [10]; 161 µM (inactive) in [20]; 1320 µM (inactive) in test [14]; 838 µM (inactive) in test [15]; 91.6 µM (inactive) in test [16]. Besides, the GI50 in [17] is 39.2 µM (inactive); in test [18], 10 µM (inactive).

With `C=C[C@]1(C)CC(O)C2C(=C)C(=O)OC2[C@H]1C(=C)C=O` (some centres undefined), the GI50 was 0.893 µM (active) in test [1]; 2.52 µM (inactive) in test [2]; 1.64 µM (inactive) in [3]; 18.2 µM (inactive) in [4]; 2.68 µM (inactive) in test [5]; 2 µM (inactive) in [6]. The GI50 was 9.04 µM (inactive) in test [7]; 3.92 µM (inactive) in test [19]; 6.59 µM (inactive) in [8]; 1.01 µM (active) in test [9]; 0.925 µM (active) in test [10]; 2.61 µM (inactive) in test [11]. Moreover, the GI50 in test [12] is 14.1 µM (inactive); in [13], 3.5 µM (inactive); in test [14], 25.8 µM (inactive); in test [15] it was 18.6 µM (inactive); in test [16] it was 3.29 µM (inactive); in test [17] it was 2.36 µM (inactive). Also, in [18], the GI50 was 2.37 µM (inactive).

On to `CCC1(O)C(=O)OCc2c1cc1n(c2=O)Cc2cc3ccc(CO)cc3nc2-1` (centres undefined), for which the GI50 in [1] was 2.57 µM (inactive); in test [2], 3.71 µM (inactive); in test [3] it was 4.85 µM (inactive); in test [4], 1.93 µM (inactive); in test [5], 2.07 µM (inactive); in [6], 0.322 µM (active). Also, the GI50 in test [7] is 0.705 µM (active); in test [8], 1.59 µM (inactive); in [9] it was 1.83 µM (inactive); in test [10], 0.186 µM (active); in test [11], 16.3 µM (inactive); in test [12], 8.26 µM (inactive). For the same compound, the GI50 in test [13] is 18 µM (inactive); in [14] it was 2.26 µM (inactive); in test [15] it was 2.18 µM (inactive); in test [16], 1.42 µM (inactive); in test [17], 2.86 µM (inactive); in test [18], 1.53 µM (inactive).
